According to US8536187B2 (Gilead Sciences, Inc., priority 2008, dated 2013):

Assays:
[1] = test system: HCV replicon in human hepatoma Huh-7 cell line; experiment: Anti-HCV replicon assay, EC50 (luciferase luminescence); format: cell-based; conditions: Hepatitis C virus, Huh-7, 72 h
Outline: (§1)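 Huh-7 cells carrying HCV replicon (6000/well) incubated with serially diluted compound, 0.5% DMSO final, 3 days at 37° C, 5% CO2. EC50 from luciferase luminescence after 30 min lysis/substrate at room temperature; CC50 from CellTiter-Glo luminescence after 10 min at room temperature.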

[2] = CC50 assay (CellTiter-Glo) in Huh-7 HCV replicon cells; format: cell-based; conditions: human
Outline: as §1

| Compound | EC50 [1] | CC50 at 3 days ([2]; Table 2, 3 days incubation) | CC50 at 3 days ([2]; Table 1, 3 days incubation) |
| --- | --- | --- | --- |
| C=Cc1ccc2nc(N[C@H](C)c3ccc(S(N)(=O)=O)cc3)nc(NCC(F)(F)F)c2n1 [Example 312, (R)-4-(1-(4-(2,2,2-trifluoro-ethylamino)-6-vinylpyrido [3,2-d]pyrimidin-2-ylamino)ethyl)benzenesulfonamide] | 0.1 to 0.25 µM | > 10 µM |  |
| CC[C@@H](Nc1nc(NCC(F)(F)F)c2nc(-c3ccc(F)cc3)ccc2n1)c1ccccc1S(N)(=O)=O [Example 11, (R)-2-{1-[6-(4-Fluoro-phenyl)-4-(2,2,2-trifluoro-ethylamino)-pyrido[3,2-d]pyrimidin-2-ylamino]-propyl}-benzenesulfonamide] | 0.25 to 2 µM |  | > 25 µM |
| NS(=O)(=O)c1ccc(CNc2nc(NCC(F)(F)F)c3nc(-c4ccc(F)cc4)ccc3n2)cc1C(F)(F)F [Example 9, 4-{[6-(4-Fluoro-phenyl)-4-(2,2,2-trifluoro-ethylamino)-pyrido[3,2-d]pyrimidin-2-ylamino]-methyl}-2-trifluoromethyl-benzenesulfonamide] | 0.25 to 2 µM |  | > 25 µM |
| NS(=O)(=O)c1ccc(CNc2nc(NC3(C(F)(F)F)CC3)c3nc(-c4ccc(F)nc4)ccc3n2)cc1 [Example 96, 4-((6-(6-fluoropyridin-3-yl)-4-(1-(trifluoromethyl)cyclopropyl-amino)pyrido[3,2-d]pyrimidin-2-ylamino)methyl)benzene-sulfonamide] | < 0.1 µM | 1 to 10 µM |  |
| CC#Cc1ccc2nc(N[C@H](C)c3ccc(S(N)(=O)=O)cc3)nc(OC3CCC3)c2n1 [Example 310, (R)-4-(1-(4-cyclobutoxy-6-(prop-1-ynyl)pyrido[3,2-d]pyrimidin-2-ylamino)ethyl) benzenesulfonamide] | < 0.1 µM | > 10 µM |  |
| C=Cc1ccc2nc(NCc3cc(Cl)cc(S(N)(=O)=O)c3)nc(OC3(C)CC3)c2n1 [Example 303, 3-chloro-5-((4-(1-methylcyclo-propoxy)-6-vinylpyrido[3,2-d]pyrimidin-2-ylamino)methyl) benzenesulfonamide] | 0.1 to 0.25 µM | > 10 µM |  |
| Fc1ccc(-c2ccc3nc(NCc4cccc(-n5cncn5)c4)nc(NCC(F)(F)F)c3n2)cc1 [Example 1, 6-(4-Fluoro-phenyl)-N2-(3-[1,2,4]-triazol-1-yl-benzyl)-N4-(2,2,2-trifluoro-ethyl)-pyrido[3,2-d]pyrimidine-2,4-diamine] | 0.1 to 0.25 µM |  | > 25 µM |
| C#Cc1ccc2nc(N[C@H](C)c3ccc(S(N)(=O)=O)cc3)nc(NCC(F)(F)F)c2n1 [Example 284, (R)-4-(1-(6-ethynyl-4-(2,2,2-trifluoroethylamino)pyrido [3,2-d]pyrimidin-2-ylamino)ethyl)benzenesulfonamide] | < 0.1 µM | > 10 µM |  |
| CS(=O)(=O)c1cccc(-c2ccc3nc(NCc4ccc(-n5ccnc5)cc4)nc(NCC(F)(F)F)c3n2)c1 [Example 193, N^2-(4-(1H-imidazol-1-yl)benzyl)-6-(3-(methylsulfonyl)phenyl)-N^4-(2,2,2-trifluoroethyl) pyrido[3,2-d]pyrimidine-2,4-diamine] | < 0.1 µM | > 10 µM |  |
| C#Cc1ccc2nc(N[C@H](C)c3ccc(S(N)(=O)=O)cc3)nc(O[C@@H]3C[C@@H]4C[C@@H]4C3)c2n1 [Example 314, 4-((R)-1-(4-((1S,3r,5R)-bicyclo[3.1.0]hexan-3-yloxy)-6-ethynylpyrido[3,2-d]pyrimidin-2-ylamino)ethyl) benzenesulfonamide] | < 0.1 µM | > 10 µM |  |
| COc1ccc(-c2ccc3nc(NCc4ccc(S(N)(=O)=O)cc4)nc(NCC(F)(F)F)c3n2)cc1C(F)(F)F [Example 228, 4-((6-(4-methoxy-3-(trifluoromethyl)phenyl)-4-(2,2,2-trifluoroethylamino)pyrido[3,2-d]pyrimidin-2-ylamino)methyl)benzene-sulfonamide] | 0.25 to 2 µM | > 10 µM |  |
| COc1ccc(-c2ccc3nc(NCc4cccc(S(C)(=O)=O)c4)nc(NCC(F)(F)F)c3n2)cc1S(C)(=O)=O [Example 177, N^2-(3-(methylsulfonyl)benzyl)-6-(4-methoxy-3-(methylsulfonyl)phenyl)-N^4-(2,2,2-trifluoroethyl) pyrido[3,2-d]pyrimidine-2,4-diamine] | < 0.1 µM | 1 to 10 µM |  |
| Cc1ccc(-c2ccc3nc(N[C@H](C)c4ccc(S(N)(=O)=O)cc4)nc(NCC(F)(F)F)c3n2)cc1S(C)(=O)=O [Example 152, 4-((R)-1-(6-(4-methyl-3-(methylsulfonyl)phenyl)-4-(2,2,2-trifluoroethylamino)pyrido[3,2-d]pyrimidin-2-ylamino)ethyl)benzene-sulfonamide] | < 0.1 µM | > 10 µM |  |
| COc1nc(N[C@H](C)c2ccc(S(N)(=O)=O)cc2)nc2ccc(C#CC3CC3)nc12 [Example 315, (R)-4-(1-(6-(2-cyclopropyl-ethynyl)-4-methoxypyrido [3,2-d]pyrimidin-2-ylamino)ethyl)benzenesulfonamide] | 0.25 to 2 µM | > 10 µM |  |
| CS(=O)(=O)c1cccc(-c2ccc3nc(NCc4ccc(-n5cncn5)cc4)nc(OC4CC4)c3n2)c1 [Example 188, N-(4-(1H-1,2,4-triazol-1-yl)benzyl)-4-cyclopropoxy-6-(3-(methylsulfonyl)phenyl) pyrido[3,2-d]pyrimidin-2-amine] | < 0.1 µM | > 10 µM |  |
| NS(=O)(=O)c1cc(CNc2nc(NC3(C(F)(F)F)CC3)c3nc(-c4ccc(F)cc4)ccc3n2)ccc1F [Example 25, 2-fluoro-5-{[6-(4-fluorophenyl)-4-(1-trifluoromethyl-cyclopropylamino)-pyrido[3,2-d]pyrimidin-2-ylamino]-methyl}-benzenesulfonamide] | < 0.1 µM | > 10 µM |  |
| NS(=O)(=O)c1ccc(CNc2nc(NCC(F)(F)F)c3nc(-c4ccc(F)cc4)ccc3n2)cc1Cl [Example 5, 2-Chloro-4-{[6-(4-fluoro-phenyl)-4-(2,2,2-trifluoro-ethylamino)-pyrido[-3,2-d]pyrimidin-2-ylamino]-methyl}-benzenesulfonamide] | < 0.1 µM |  | > 25 µM |
| CC1(Oc2nc(NCc3ccc(-n4cncn4)cc3)nc3ccc(-c4ccc(OC5CC5)nc4)nc23)CC1 [Example 247, N-(4-(1H-1,2,4-triazol-1-yl)benzyl)-6-(6-cyclopropoxy-pyridin-3-yl)-4-(1-methylcyclo-propoxy)pyrido[3,2-d]pyrimidin-2-amine] | < 0.1 µM | 1 to 10 µM |  |
| N#Cc1cc(CNc2nc(NC3(C(F)(F)F)CC3)c3nc(-c4ccc(F)cc4)ccc3n2)cc(S(N)(=O)=O)c1 [Example 49, 3-cyano-5-((6-(4-fluorophenyl)-4-(1-(trifluoromethyl)cyclopropyl-amino)pyrido[3,2-d]pyrimidin-2-ylamino)methyl)benzene-sulfonamide] | < 0.1 µM | > 10 µM |  |
| CCS(=O)(=O)c1cccc(-c2ccc3nc(N[C@H](C)c4ccc(-n5cncn5)cc4)nc(NCC(F)(F)F)c3n2)c1 [Example 182, N^2-((R)-1-(4-(1H-1,2,4-triazol-1-yl)phenyl)ethyl)-6-(3-(ethylsulfonyl)phenyl)-N^4-(2,2,2-trifluoroethyl)pyrido [3,2-d]pyrimidine-2,4-diamine] | < 0.1 µM | 1 to 10 µM |  |
| NS(=O)(=O)c1ccc(CNc2nc(NCC(F)(F)F)c3nc(-c4ccc(F)cc4)ccc3n2)cc1F [Example 3, 2-Fluoro-4-{[6-(4-fluoro-phenyl)-4-(2,2,2-trifluoro-ethylamino)-pyrido[3,2-d]pyrimidin-2-ylamino]-methyl}-benzenesulfonamide] | 0.25 to 2 µM |  | > 25 µM |
| COc1ccc(-c2ccc3nc(NCc4ccc(S(N)(=O)=O)c(Cl)c4)nc(NCC(F)(F)F)c3n2)cc1S(C)(=O)=O [Example 147, 2-chloro-4-((6-(4-methoxy-3-(methylsulfonyl)phenyl)-4-(2,2,2-trifluoroethylamino)pyrido[3,2-d]pyrimidin-2-ylamino)methyl)benzene-sulfonamide] | < 0.1 µM | > 10 µM |  |
| C[C@@H](Nc1nc(NC2(C(F)(F)F)CCCCC2)c2nc(-c3ccc(F)cc3)ccc2n1)c1ccc(S(N)(=O)=O)cc1 [Example 67, (R)-4-(1-(6-(4-fluorophenyl)-4-(1-(trifluoromethyl)cyclohexylamino)pyrido[3,2-d]pyrimidin-2-ylamino)ethyl)benzenesulfonamide] | 0.25 to 2 µM | > 10 µM |  |
| CC#Cc1ccc2nc(NCc3cc(Cl)cc(S(N)(=O)=O)c3)nc(OC3(C)CC3)c2n1 [Example 311, 3-chloro-5-((4-(1-methylcyclo-propoxy)-6-(prop-1-ynyl)pyrido [3,2-d]pyrimidin-2-ylamino)methyl)benzenesulfonamide] | < 0.1 µM | > 10 µM |  |
| COc1ccc(-c2ccc3nc(NCc4cccc(S(C)(=O)=O)c4)nc(NC4(C(F)(F)F)CC4)c3n2)cc1S(C)(=O)=O [Example 35, N^2-(3-(methylsulfonyl)benzyl)-6-(4-methoxy-3-(methylsulfonyl)phenyl)-N^4-(1-(trifluoromethyl)cyclopropyl) pyrido[3,2-d]pyrimidine-2,4-diamine] | < 0.1 µM | 1 to 10 µM |  |
| Cc1cc(S(N)(=O)=O)ccc1[C@@H](C)Nc1nc(NC2(C(F)(F)F)CC2)c2nc(-c3ccc(F)cc3)ccc2n1 [Example 117, (R)-4-(1-(6-(4-fluorophenyl)-4-(1-(trifluoromethyl)cyclopropyl-amino)pyrido[3,2-d]pyrimidin-2-ylamino)ethyl)-3-methylbenzene-sulfonamide] | < 0.1 µM | > 10 µM |  |
| COCc1ccc(-c2ccc3nc(NCc4ccc(S(N)(=O)=O)cc4)nc(NC4(C(F)(F)F)CC4)c3n2)cc1S(C)(=O)=O [Example 30, 4-{[6-(3-methanesulfonyl-4-methoxymethylphenyl)-4-(1-trifluoromethyl-cyclopropylamino)-pyrido[3,2-d]pyrimidin-2-ylamino]-methyl}-benzenesulfonamide] | < 0.1 µM | > 10 µM |  |
